Measured values: ChEMBL document CHEMBL1156733, “Structure-activity relationship studies on a series of piperazinebenzylalcohols and their ketone and amine analogs as melanocortin-4 receptor ligands” (Bioorg Med Chem Lett, 2008)

How the values were obtained:
Melanocortin receptor 4 [1] = molecular target: T1, Melanocortin receptor 4 (Homo sapiens, UniProt P32245)
Melanocortin receptor 4 [2] = molecular target: Melanocortin receptor 4 (Homo sapiens, UniProt P32245, D122A); test: Binding affinity to human MC4 receptor Asp122Ala mutant
Chain of Melanocortin receptor 4 (Homo sapiens, UniProt P32245, D122A) (P32245 whole entry D122A): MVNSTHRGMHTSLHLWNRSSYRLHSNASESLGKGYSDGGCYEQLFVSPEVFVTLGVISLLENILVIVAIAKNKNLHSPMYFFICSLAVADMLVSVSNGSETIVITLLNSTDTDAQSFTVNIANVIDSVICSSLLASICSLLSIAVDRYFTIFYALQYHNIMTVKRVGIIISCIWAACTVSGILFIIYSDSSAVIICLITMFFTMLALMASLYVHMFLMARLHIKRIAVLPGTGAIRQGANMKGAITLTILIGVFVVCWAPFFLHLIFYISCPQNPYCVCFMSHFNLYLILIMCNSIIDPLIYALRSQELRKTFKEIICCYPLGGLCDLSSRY

Homo sapiens = organism: Homo sapiens; test: Selectivity for human MC4 receptor over human MC4 receptor Asp122Ala mutant
Melanocortin receptor 3 = Melanocortin receptor 3 (Homo sapiens, UniProt P41968); test: Binding affinity to MC3 receptor
Chain of Melanocortin receptor 3 (P41968 whole entry): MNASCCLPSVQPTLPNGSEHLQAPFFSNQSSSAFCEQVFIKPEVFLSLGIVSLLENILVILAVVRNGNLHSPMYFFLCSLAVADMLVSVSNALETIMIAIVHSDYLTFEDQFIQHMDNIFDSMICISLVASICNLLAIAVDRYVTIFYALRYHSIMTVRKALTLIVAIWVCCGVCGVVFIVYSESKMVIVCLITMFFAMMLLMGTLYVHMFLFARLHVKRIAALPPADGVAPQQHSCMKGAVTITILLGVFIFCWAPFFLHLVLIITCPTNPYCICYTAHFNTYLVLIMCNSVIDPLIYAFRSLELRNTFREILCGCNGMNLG

Melanocortin receptor 5 = Melanocortin receptor 5 (Homo sapiens, UniProt P33032); test: Binding affinity to MC5 receptor
Chain of Melanocortin receptor 5 (P33032 whole entry): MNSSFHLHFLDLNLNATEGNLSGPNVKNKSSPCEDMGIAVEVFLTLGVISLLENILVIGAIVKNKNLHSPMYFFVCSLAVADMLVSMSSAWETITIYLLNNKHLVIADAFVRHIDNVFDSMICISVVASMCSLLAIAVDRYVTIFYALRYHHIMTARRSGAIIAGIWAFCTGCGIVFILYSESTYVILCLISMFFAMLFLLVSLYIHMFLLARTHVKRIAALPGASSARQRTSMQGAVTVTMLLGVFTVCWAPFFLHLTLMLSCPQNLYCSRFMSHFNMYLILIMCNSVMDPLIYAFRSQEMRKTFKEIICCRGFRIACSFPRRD

Melanocortin receptor 4 [3] = molecular target: T1, Melanocortin receptor 4; test: Antagonist activity at human MC4 receptor expressed in cells assessed as inhibition of alpha-MSH-stimulated cAMP production; format: functional, cell-based
[4] = tested on: Melanocortin receptor 1 (Homo sapiens); test: Inhibition of human MC1 receptor at 10 uM
[5] = Plasma clearance in rat at 5 mg/kg, iv; format: ADME, organism-based; design: dose 5 mg/kg, route intravenous
[6] = Volume of distribution in rat at 5 mg/kg, iv; format: ADME, organism-based; design: dose 5 mg/kg, route intravenous; conditions: in vivo
[7] = Half life in rat at 5 mg/kg, iv; format: ADME, organism-based; design: dose 5 mg/kg, route intravenous; conditions: in vivo
Brain = test: Drug level in rat brain rat at 5 mg/kg, iv; format: ADME, organism-based; design: dose 5 mg/kg, route intravenous; conditions: in vivo
[8] = Ratio of drug level in brain to plasma in rat at 5 mg/kg, iv after 1 hr; format: ADME, organism-based; design: dose 5 mg/kg, route intravenous
[9] = Oral bioavailability in rat at 10 mg/kg; format: ADME, organism-based; conditions: in vivo
[10] = Lipophilicity, log D of the compound; format: physicochemical; conditions: octanol/water
[11] = Metabolic stability assessed as intrinsic clearance in human liver microsomes; format: ADME, Microsome

T1 sequence (P32245 whole entry): as the sequence (P32245 whole entry D122A) above, with A122D counted along it

SMILES	Ki (Melanocortin receptor 4 [1]) [nM]	further results
CC(C)CC(=O)c1ccccc1N1CCN(C(=O)[C@@H](Cc2ccc(Cl)cc2Cl)NC(C)C)CC1	560	
CC(C)CC(O)c1ccccc1N1CCN(C(=O)[C@@H](Cc2ccc(Cl)cc2Cl)N(Cc2ccccn2)Cc2ccccn2)CC1 (stereo partly drawn)	83	
CSCCCN[C@H](Cc1ccc(Cl)cc1Cl)C(=O)N1CCN(c2ccccc2C(=O)CC(C)C)CC1	230	
CCC(O)(CC)c1ccccc1N1CCN(C(=O)[C@@H](Cc2ccc(Cl)cc2Cl)NC(=O)C(C)(C)N)CC1	38	
CCCC(C)(O)c1ccccc1N1CCN(C(=O)[C@@H](Cc2ccc(Cl)cc2Cl)NC(=O)CCN)CC1 (stereo partly drawn)	11	
COc1cccc(CC(O)c2ccccc2N2CCN(C(=O)[C@@H](Cc3ccc(Cl)cc3Cl)NC(=O)CCN)CC2)c1 (stereo partly drawn)	66	
NCCC(=O)N[C@H](Cc1ccc(Cl)cc1Cl)C(=O)N1CCN(c2ccccc2C(O)Cc2ccccc2)CC1 (stereo partly drawn)	54	
CCCCN(CCCC)[C@H](Cc1ccc(Cl)cc1Cl)C(=O)N1CCN(c2ccccc2C(=O)CC(C)C)CC1	1700	
CC(C)CC(N)c1ccccc1N1CCN(C(=O)[C@@H](Cc2ccc(Cl)cc2Cl)N(Cc2ccccn2)Cc2ccccn2)CC1 (stereo partly drawn)	2	
CC(C)CC(O)c1ccccc1N1CCN(C(=O)[C@@H](Cc2ccc(Cl)cc2Cl)NCC2CCOC2)CC1 (stereo partly drawn)	89	
CC(C)CC(=O)c1ccccc1N1CCN(C(=O)[C@@H](Cc2ccc(Cl)cc2Cl)NCC2CCOC2)CC1 (stereo partly drawn)	150	
CCOC(=O)[C@H]1CCCC[C@@H]1N1CCN(C(=O)[C@@H](Cc2ccc(Cl)cc2Cl)NC(=O)CCN)CC1	6.3	
CCC(O)(CC)c1ccccc1N1CCN(C(=O)[C@@H](Cc2ccc(Cl)cc2Cl)NC(=O)[C@@H](C)N)CC1	65	
CCCCCN(CCCCC)[C@H](Cc1ccc(Cl)cc1Cl)C(=O)N1CCN(c2ccccc2C(N)CC(C)C)CC1 (stereo partly drawn)	350	
CCCCN(CCCC)[C@H](Cc1ccc(Cl)cc1Cl)C(=O)N1CCN(c2ccccc2C(O)CC(C)C)CC1 (stereo partly drawn)	1400	
CC(C)CC(O)c1ccccc1N1CCN(C(=O)[C@@H](Cc2ccc(Cl)cc2Cl)N(CC2CC2)CC2CC2)CC1 (stereo partly drawn)	> 10000	
CNC(C)(C)C(=O)N[C@H](Cc1ccc(Cl)cc1Cl)C(=O)N1CCN(c2ccccc2C(=O)CC(C)C)CC1	91	
CC(C)CC(O)c1ccccc1N1CCN(C(=O)[C@@H](Cc2ccc(Cl)cc2Cl)NC(=O)C2CCCNC2)CC1 (stereo partly drawn)	49	
CC(C)CC(N)c1ccccc1N1CCN(C(=O)[C@@H](Cc2ccc(Cl)cc2Cl)N(CC2CC2)CC2CC2)CC1 (stereo partly drawn)	350	
NCCC(=O)N[C@H](Cc1ccc(Cl)cc1Cl)C(=O)N1CCN(c2ccccc2C(O)CCc2ccccc2)CC1 (stereo partly drawn)	32	

SMILES	Ki (Melanocortin receptor 4 [1]) [nM]	further results
CCC(O)(CC)c1ccccc1N1CCN(C(=O)[C@@H](Cc2ccc(Cl)cc2Cl)NC(=O)N2CCCC2=O)CC1	110	
CCC(O)(CC)c1ccccc1N1CCN(C(=O)[C@@H](Cc2ccc(Cl)cc2Cl)NC(=O)[C@H](C)N)CC1	18	
CCC(O)(CC)c1ccccc1N1CCN(C(=O)[C@@H](Cc2ccc(Cl)cc2Cl)NC(=O)CCN)CC1	11	
CCC(O)(CC)c1ccccc1N1CCN(C(=O)[C@@H](Cc2ccc(Cl)cc2Cl)NC(=O)OC(C)(C)C)CC1	390	
CCCCCN(CCCCC)[C@H](Cc1ccc(Cl)cc1Cl)C(=O)N1CCN(c2ccccc2C(=O)CC(C)C)CC1	5800	
CC(C)CC(=O)c1ccccc1N1CCN(C(=O)[C@@H](Cc2ccc(Cl)cc2Cl)N(Cc2ccccn2)Cc2ccccn2)CC1	110	
COc1ccccc1CC(O)c1ccccc1N1CCN(C(=O)[C@@H](Cc2ccc(Cl)cc2Cl)NC(=O)CCN)CC1 (stereo partly drawn)	66	
CC(C)CC(=O)c1ccccc1N1CCN(C(=O)[C@@H](Cc2ccc(Cl)cc2Cl)N(CC(C)C)CC(C)C)CC1	> 10000	
CCC(O)(CC)c1ccccc1N1CCN(C(=O)[C@@H](Cc2ccc(Cl)cc2Cl)NC(=O)NC2CC2)CC1	42	
CCCCCN(CCCCC)[C@H](Cc1ccc(Cl)cc1Cl)C(=O)N1CCN(c2ccccc2C(O)CC(C)C)CC1 (stereo partly drawn)	3200	
CCCCN(CCCC)[C@H](Cc1ccc(Cl)cc1Cl)C(=O)N1CCN(c2ccccc2C(N)CC(C)C)CC1 (stereo partly drawn)	120	
CCC(O)(CC)c1ccccc1N1CCN(C(=O)[C@@H](Cc2ccc(Cl)cc2Cl)NC(=O)CN)CC1	26	
CCC(O)(CC)c1ccccc1N1CCN(C(=O)[C@@H](Cc2ccc(Cl)cc2Cl)NC(=O)CN(C)C)CC1	9.4	Ki (Melanocortin receptor 3): 3100 nM; Ki (Melanocortin receptor 5): 950 nM; IC50 (Melanocortin receptor 4 [3]): 400 nM; inhibition [4]: 34%
COc1ccc(CCC(O)c2ccccc2N2CCN(C(=O)[C@@H](Cc3ccc(Cl)cc3Cl)NC(=O)CCN)CC2)cc1 (stereo partly drawn)	23	
CC(C)CC(=O)c1ccccc1N1CCN(C(=O)[C@@H](Cc2ccc(Cl)cc2Cl)NC(=O)C(C)(C)N)CC1	110	
NCCC(=O)N[C@H](Cc1ccc(Cl)cc1Cl)C(=O)N1CCN(c2ccccc2CO)CC1	870	
CC(C)CC(N)c1ccccc1N1CCN(C(=O)[C@@H](Cc2ccc(Cl)cc2Cl)N(CC(C)C)CC(C)C)CC1 (stereo partly drawn)	1200	
CC(C)CC(=O)c1ccccc1N1CCN(C(=O)[C@@H](Cc2ccc(Cl)cc2Cl)N(CC2CC2)CC2CC2)CC1	> 10000	
CC(C)CC(O)c1ccccc1N1CCN(C(=O)[C@@H](Cc2ccc(Cl)cc2Cl)N(CC(C)C)CC(C)C)CC1 (stereo partly drawn)	> 10000	

The next lines start with results.

Ki (Melanocortin receptor 4 [1]) [nM]	SMILES	further results
26	CCCC(O)c1ccccc1N1CCN(C(=O)[C@@H](Cc2ccc(Cl)cc2Cl)NC(=O)CCN)CC1 (stereo partly drawn)	
380	CC(C)CC(O)c1ccccc1N1CCN(C(=O)[C@@H](Cc2ccc(Cl)cc2Cl)NC(C)C)CC1 (stereo partly drawn)	
2	CC(C)CC(N)c1ccccc1N1CCN(C(=O)[C@@H](Cc2ccc(Cl)cc2Cl)NC(=O)CN)CC1 (stereo partly drawn)	
16	CC(C)CC(O)c1ccccc1N1CCN(C(=O)[C@@H](Cc2ccc(Cl)cc2Cl)NC(=O)[C@H](C)N)CC1 (stereo partly drawn)	
1.7	CNCC(=O)N[C@H](Cc1ccc(Cl)cc1Cl)C(=O)N1CCN(c2ccccc2C(N)CC(C)C)CC1 (stereo partly drawn)	Ki (Melanocortin receptor 4 [2]): 99 nM; fold change (FC) (Homo sapiens): 58
13	CC(C)CC(O)c1ccccc1N1CCN(C(=O)[C@@H](Cc2ccc(Cl)cc2Cl)NC(=O)CN)CC1 (stereo partly drawn)	
9.6	CC(C)CC(O)c1ccccc1N1CCN(C(=O)[C@@H](Cc2ccc(Cl)cc2Cl)NC(=O)CN(C)C)CC1 (stereo partly drawn)	Ki (Melanocortin receptor 3): 3100 nM; Ki (Melanocortin receptor 5): 1300 nM; IC50 (Melanocortin receptor 4 [3]): 250 nM; inhibition [4]: 36%
8.3	CNCC(=O)N[C@H](Cc1ccc(Cl)cc1Cl)C(=O)N1CCN(c2ccccc2C(O)CC(C)C)CC1 (stereo partly drawn)	Ki (Melanocortin receptor 4 [2]): 500 nM; fold change (FC) (Homo sapiens): 60; Ki (Melanocortin receptor 3): 2500 nM; Ki (Melanocortin receptor 5): 1800 nM; IC50 (Melanocortin receptor 4 [3]): 420 nM; inhibition [4]: 34%
4.7	CNC(C)(C)C(=O)N[C@H](Cc1ccc(Cl)cc1Cl)C(=O)N1CCN(c2ccccc2C(N)CC(C)C)CC1 (stereo partly drawn)	
280	CC(C)CC(O)c1ccccc1N1CCN(C(=O)[C@H](N)Cc2ccc(Cl)cc2Cl)CC1 (stereo partly drawn)	
110	CC(C)C(O)c1ccccc1N1CCN(C(=O)[C@@H](Cc2ccc(Cl)cc2Cl)NC(=O)CCN)CC1 (stereo partly drawn)	
21	CNC(C)(C)C(=O)N[C@H](Cc1ccc(Cl)cc1Cl)C(=O)N1CCN(c2ccccc2C(O)CC(C)C)CC1 (stereo partly drawn)	
53	CC(C)CC(N)c1ccccc1N1CCN(C(=O)[C@@H](Cc2ccc(Cl)cc2Cl)NC(C)C)CC1 (stereo partly drawn)	
330	CSCCCN[C@H](Cc1ccc(Cl)cc1Cl)C(=O)N1CCN(c2ccccc2C(O)CC(C)C)CC1 (stereo partly drawn)	
3.2	CC(C)CC(N)c1ccccc1N1CCN(C(=O)[C@@H](Cc2ccc(Cl)cc2Cl)NC(=O)CCN)CC1 (stereo partly drawn)	Ki (Melanocortin receptor 3): 870 nM; Ki (Melanocortin receptor 5): 540 nM; IC50 (Melanocortin receptor 4 [3]): 250 nM; clearance [5]: 68 mL/min/kg; Vd [6]: 41.5 L/kg; half-life [7]: 7.1 h; Drug uptake (Brain): 245 ng/g; Kp at 1 h [8]: 1.8; bioavailability [9]: 2.1%; logD [10]: 0.15; CLint scaled [11]: 3.6 mL/min/kg
33	CC(C)CC(=O)c1ccccc1N1CCN(C(=O)[C@@H](Cc2ccc(Cl)cc2Cl)NC(=O)CN)CC1	
7.7	CC(C)CC(N)c1ccccc1N1CCN(C(=O)[C@@H](Cc2ccc(Cl)cc2Cl)NC(=O)C(C)(C)N)CC1 (stereo partly drawn)	
4.2	CC(C)CC(N)c1ccccc1N1CCN(C(=O)[C@@H](Cc2ccc(Cl)cc2Cl)NC(=O)[C@H](C)N)CC1 (stereo partly drawn)	
29	C=CC(C)C(O)c1ccccc1N1CCN(C(=O)[C@@H](Cc2ccc(Cl)cc2Cl)NC(=O)CCN)CC1 (stereo partly drawn)	
9	CC(C)C[C@@H](O)c1ccccc1N1CCN(C(=O)[C@@H](Cc2ccc(Cl)cc2Cl)NC(=O)CN)CC1	
24	CC(C)CC(=O)c1ccccc1N1CCN(C(=O)[C@@H](Cc2ccc(Cl)cc2Cl)NC(=O)CCN)CC1	Ki (Melanocortin receptor 3): 2300 nM; Ki (Melanocortin receptor 5): 330 nM; IC50 (Melanocortin receptor 4 [3]): 650 nM; logD [10]: 2.4; CLint scaled [11]: 18.4 mL/min/kg; inhibition [4]: 42%
26	CC(C)CC(=O)c1ccccc1N1CCN(C(=O)[C@@H](Cc2ccc(Cl)cc2Cl)NC(=O)[C@H](C)N)CC1	
13	CCC(O)(CC)c1ccccc1N1CCN(C(=O)[C@@H](Cc2ccc(Cl)cc2Cl)NC(=O)CNC)CC1	
31	CNCC(=O)N[C@H](Cc1ccc(Cl)cc1Cl)C(=O)N1CCN(c2ccccc2C(=O)CC(C)C)CC1	Ki (Melanocortin receptor 4 [2]): 290 nM; fold change (FC) (Homo sapiens): 9
15	CC(C)CC(N)c1ccccc1N1CCN(C(=O)[C@@H](Cc2ccc(Cl)cc2Cl)NCC2CCOC2)CC1 (stereo partly drawn)	
28	CC(C)C[C@H](O)c1ccccc1N1CCN(C(=O)[C@@H](Cc2ccc(Cl)cc2Cl)NC(=O)CN)CC1	
47	CCC(C)C(O)c1ccccc1N1CCN(C(=O)[C@@H](Cc2ccc(Cl)cc2Cl)NC(=O)CCN)CC1 (stereo partly drawn)	
21	CSCCCN[C@H](Cc1ccc(Cl)cc1Cl)C(=O)N1CCN(c2ccccc2C(N)CC(C)C)CC1 (stereo partly drawn)	
46	CC(C)CC(O)c1ccccc1N1CCN(C(=O)[C@@H](Cc2ccc(Cl)cc2Cl)NC(=O)C(C)(C)N)CC1 (stereo partly drawn)	
